Assays:
wildtype (N2) C. elegans = assay: Lifespan assay, wildtype worms; assay type: in vivo
Protocol: Lifespan assays were performed as described previously. (McColl, G. et al. Pharmacogenetic analysis of lithium-induced delayed aging in Caenorhabditis elegans. J Biol Chem 283, 350-357 (2008). Briefly, the nematode growth media (NGM) plates were prepared under sterile conditions. 100 μL of concentrated stocks of each of the compounds used in this study were added onto a previously prepared NGM small plate (3 mL volume) immediately spread over the surface of the plate. The final concentrations quoted in the text assume an even distribution of compound throughout the 3 ml plate. The plates were then placed in a laminar flow hood at room temperature for 30 min and then 60 μL of a concentrated suspension of E. coli OP50 was spotted to form a circular lawn on the center of each plate. […] The first day of adulthood is Day 3 in survival curves. There was between-experiment variation in the magnitude of the lifespan extension observed with ThT which appeared to correlate with different suppliers and batches. ThT concentration should be optimized depending on batch and purity and stability of the compound. […] The optimal range for lifespan extension was between 25 and 75 μM.
Animals were scored as alive, dead or lost every other day. […] Animals that died from causes other than ageing, such as sticking to the plate walls, internal hatching of eggs (“bagging”) or gonadal extrusion were censored as were lost worms. Animals were transferred to fresh plates every 3-6 days. All lifespan experiments were performed at 20° C. unless otherwise stated. Survival curves were plotted and statistical analyses (log-rank test) were performed using the Prism 4 software (Graphpad™ Software, Inc., San Diego, Calif., USA).

[1] = tested on: N2 worms raised on 1×10^9 cfu/ml; assay: Lifespan under dietary restriction (diluted bacterial food); conditions: 20° C.
Protocol: Plates were prepared as described (Chen, D., Thomas, E. L. & Kapahi, P. HIF-1 modulates dietary restriction-mediated lifespan extension via IRE-1 in Caenorhabditis elegans. PLoS Genet. 5, e1000486, (2009), but bacterial concentration was adjusted to 1.0×10^12 cfu/ml and diluted to achieve bacterial concentration of 1.0×10^9 cfu/ml. Diluted bacterial cultures were spotted onto DR agar plates, which were modified from the standard nematode growth media (NGM) plates by excluding peptone and increasing agar from 1.7% to 2.0%. Carbenicillin ([…]) was added to the agar plates to further prevent bacterial growth. Synchronized L4 larvae grown under standard lab conditions (NGM plates with OP50 food, 20° C.) were transferred to fresh DR agar plates in presence or absence of 1, 10, 25, 50 and 100 μM ThT and lifespans scored as described above.

DA465 [eat-2(ad465)II] = assay: Lifespan assay, eat-2 mutant; assay type: in vivo, Caenorhabditis elegans; conditions: 50 μM ThT
Protocol: Lifespan assays were performed as described previously. (McColl, G. et al. Pharmacogenetic analysis of lithium-induced delayed aging in Caenorhabditis elegans. J Biol Chem 283, 350-357 (2008). Briefly, the nematode growth media (NGM) plates were prepared under sterile conditions. 100 μL of concentrated stocks of each of the compounds used in this study were added onto a previously prepared NGM small plate (3 mL volume) immediately spread over the surface of the plate. The final concentrations quoted in the text assume an even distribution of compound throughout the 3 ml plate. The plates were then placed in a laminar flow hood at room temperature for 30 min and then 60 μL of a concentrated suspension of E. coli OP50 was spotted to form a circular lawn on the center of each plate. Thirty late L4 larvae growing at 20° C. were transferred to fresh NGM plates with FUdR (75 μM) in presence or absence of the specified compounds and incubated at 20° C. The first day of adulthood is Day 3 in survival curves. There was between-experiment variation in the magnitude of the lifespan extension observed with ThT which appeared to correlate with different suppliers and batches. ThT concentration should be optimized depending on batch and purity and stability of the compound. […]
Animals were scored as alive, dead or lost every other day. […]

[2] = tested on: aggregation-prone soluble oligomeric protein (A11 antibody) in N2; assay: A11 immunolocalization of soluble oligomeric protein, N2; assay type: in vivo, Caenorhabditis elegans; conditions: N2, 11 days old, 50 μM ThT
Protocol: For fluorescent microscopy, TJ356 zIs356 IV [daf-16::daf-16-gfp+rol-6] or CF2189 Is001(skn-1::gfp+rol-6) were paralyzed with 1 mM levamisole mounted on 1% agarose pads and imaged using Olympus BX51 (60× objective) and HCImage software (Hamamatsu). For immunofluorescence, N2, […], CB1157 unc-54(e1157) or CL4176 dvIs27 [myo-3::Aβ(3 to 42)-let 3′UTR(pAF29); pRF4 (rol-6(su1006))] worms were treated for 24-36 h with or without 50 μM ThT at 25° C. After this period the worms were collected, rinsed, and fixed in 4% paraformaldehyde overnight. […] Paramyosin and perlecans were detected with primary monoclonal antibodies 5-23 and MH3 (developed by Henry Epstein and Robert H. Waterston and obtained from the Developmental Studies Hybridoma Bank developed under the auspices of the NICHD and maintained by The University of Iowa, Department of Biology, Iowa City, Iowa 52242) and AlexaFluor 633 goat anti-mouse (Molecular Probes) as secondary antibody. Soluble oligomers and Aβ peptide were detected with anti polyclonal All (Invitrogen) and 6E10 monoclonal (Covance) primary antibodies, respectively, with AlexaFluor 568 goat anti-rabbit and AlexaFluor 488 goat anti-mouse (Molecular Probes) as secondary antibodies. Images were processed and quantified by using Image Analyst MK II (Novato, Calif.).

[3] = absence of FUdR, 50 μM, 20° C., 4 independent experiments
[4] = sterile N2 worms, 50 or 100 μM throughout adult life

Compound: Cc1ccc2c(c1)sc(-c1ccc(N(C)C)cc1)[n+]2C.[Cl-] [ThT, 4-(3,6-dimethyl-1,3-benzothiazol-3-ium-2-yl)-N,N-dimethylaniline chloride]
- effect on lifespan at higher doses (wildtype (N2) C. elegans; 500 μM): appears toxic and significantly shortens lifespan
- Average increase in median lifespan (wildtype (N2) C. elegans; [3]): 40%
- increase in median lifespan, range over experiments (wildtype (N2) C. elegans; [3]): 30-70%
- increase in maximal lifespan (wildtype (N2) C. elegans; [4]): 43-78%
- increase in median lifespan (wildtype (N2) C. elegans; [4]): 60%
- lifespan in bacterial dilution DR model ([1]; 50 μM ThT): detrimental to lifespan
- increase in lifespan in bacterial dilution DR model ([1]; 1 and 10 μM ThT): 24%
- lifespan of eat-2 mutant (genetic DR model) (DA465 [eat-2(ad465)II]): increased the lifespan
- A11-positive oligomeric material [2]: significantly decreased
